Test results taken from US20250304620A1, “ANTIMICROBIAL PEPTIDE AND APPLICATION THEREOF” (priority 2023, published 2025).
Non-standard residues stand in square brackets, D forms with d. PEG2000 = polyethylene glycol 2000, conjugated to the N-terminus; PEG4000 = polyethylene glycol 4000, conjugated to the C-terminus; PEG200 = polyethylene glycol 200, conjugated to the C-terminus; PEG500 = polyethylene glycol 500, conjugated to the C-terminus; 2Nal = N[C@@H](Cc1ccc2ccccc2c1)C(=O)O; PEG1000 = polyethylene glycol 1000

system: Staphylococcus aureus (NRS 384); experiment: microbe, parasite or virus in culture; format: cell-based; conditions: Staphylococcus aureus (NRS 384)
Excerpt: According to the Standards of Clinical and Laboratory Standards Institute (CLSI) of the USA for antimicrobial drug susceptibility test operation standards, a micronutrient serial twofold dilution method was used to determine minimum inhibitory concentrations (MICs) of all 60 peptides (S/N: LV-1˜LV-60) against Staphylococcus aureus (NRS 384). The experiment was repeated 5 times in parallel. […] An antibacterial drug Levofloxacin and an AMP Cbf-K16 (sequence of Cbf-K16: […]) were used as positive controls to evaluate the antibacterial effect of the antimicrobial peptides on Staphylococcus aureus (NRS 384).

In order of rising “MIC against Staphylococcus aureus (NRS 384)” value:
1. Ac-RKLLXRLKXRK-PEG200 [LV-56] (Ac-RKLL[2Nal]RLK[2Nal]RK-PEG200) [polyethylene glycol 200 conjugated to C-terminal; X=3-(2-naphthyl)-alanine]  4 µg/mL
2. Ac-RKLLXRLKXRK-PEG1000 [LV-58] (Ac-RKLL[2Nal]RLK[2Nal]RK-PEG1000) [polyethylene glycol 1000 conjugated to C-terminal; X=3-(2-naphthyl)-alanine]  4 µg/mL
3. PEG2000-RKLLXRLKXRK-NH2 [LV-59] (PEG2000-RKLL[2Nal]RLK[2Nal]RK-NH2) [polyethylene glycol 2000 conjugated to N-terminal; X=3-(2-naphthyl)-alanine]  4 µg/mL
4. Ac-RKLLXRLKXRK-PEG500 [LV-57] (Ac-RKLL[2Nal]RLK[2Nal]RK-PEG500) [polyethylene glycol 500 conjugated to C-terminal; X=3-(2-naphthyl)-alanine]  8 µg/mL
5. Ac-RKLLXRLKXRK-PEG4000 [LV-60] (Ac-RKLL[2Nal]RLK[2Nal]RK-PEG4000) [polyethylene glycol 4000 conjugated to C-terminal; X=3-(2-naphthyl)-alanine]  8 µg/mL
